Results from US20260285853A1, “COMPOUNDS AND METHODS FOR MODULATING SPLICING” (REMIX THERAPEUTICS INC., priority 2023, published 2026).
Structures can show the parent of a compound that is named as a salt.

Assays:
HTT mRNA = experiment: Splicing RT-qPCR assay, canonical (CJ) and alternative (AJ) junction mRNA, K562 cells; assay type: cell-based; details: Homo sapiens, K562.3 cells, 24 hours; for AC50: read-out: HTT AJ (AC50, increase in AJ mRNA); for IC50: read-out: HTT CJ (IC50, decrease in CJ mRNA)
Outline: (§1)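 K562 (IMDM, 10% FBS); 11-pt 3-fold series, top 10 uM final; DMSO ≤0.25%; 24 h, 37 °C, 5% CO2. Lysis with DNase I, 1-step TaqMan RT-qPCR. ΔΔCt vs housekeeper (GAPDH/GUSB) and DMSO, then RQ and % response.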

MYB mRNA = experiment: as above; assay type: cell-based; details: Homo sapiens, K562.3 cells, 24 hours; for AC50: read-out: MYB AJ (AC50, increase in AJ mRNA); for IC50: read-out: MYB CJ (IC50, decrease in CJ mRNA)
Outline: as §1

Row | SMILES | AC50 (HTT mRNA) [nM] | IC50 (HTT mRNA) [nM] | AC50 (MYB mRNA) [nM] | IC50 (MYB mRNA) [nM]
1 | Cc1cn2cc(NC(=O)c3ccc(N4C[C@@H](C)N[C@@H](C)C4)c4[nH]nnc34)cc(F)c2n1 [Compound 243, 7-((3S,5R)-3,5-dimethylpiperazin-1-yl)-N-(8-fluoro-2-methylimidazo[1,2-a]pyridin-6-yl)-1H-benzo[d][1,2,3]-triazole-4-carboxamide hydrochloride] | > 10000 | > 10000 | > 10000 | > 10000
2 | Cc1cn2cc(NC(=O)c3c(F)cc(N4CCNCC4)c4occc34)cc(F)c2n1 [Compound 247, 5-fluoro-N-(8-fluoro-2-methylimidazo-[1,2-a]pyridin-6-yl)-7-piperazin-1-yl-benzofuran-4-carboxamide] | > 10000 | > 10000 | > 10000 | > 10000
3 | Cc1cn2cc(NC(=O)c3ccc(N4CCNC(C(F)(F)F)C4)c4cn(C)nc34)cc(F)c2n1 (stereo not drawn) [Compound 248, N-(8-fluoro-2-methyl-imidazo[1,2-a]-pyridin-6-yl)-2-methyl-4-[3-(trifluoro-methyl)piperazin-1-yl]indazole-7-carboxamide] | > 10000 | > 10000 | 1000 to 10000 | 1000 to 10000
4 | Cc1cn2cc(NC(=O)c3ccc(N4CCNC(C(F)F)C4)c4cn(C)nc34)cc(F)c2n1 (stereo not drawn) [Compound 249, 4-[3-(difluoromethyl)piperazin-1-yl]-N-(8-fluoro-2-methylimidazo[1,2-a]pyridin-6-yl)-2-methyl-indazole-7-carboxamide] | 1000 to 10000 | 1000 to 10000 | 100 to 1000 | 100 to 1000
5 | COc1cc(N2CCNCC2)c2cn(C)nc2c1C(=O)Nc1cc(F)c2nc(C)cn2c1 [Compound 250, N-(8-fluoro-2-methyl-imidazo[1,2-a]pyridin-6-yl)-6-methoxy-2-methyl-4-piperazin-1-yl-indazole-7-carboxamide] | > 10000 | > 10000 | > 10000 | > 10000
6 | Cc1cn2cc(NC(=O)c3ccc(N4CCNCC4=O)c4cn(C)nc34)cc(F)c2n1 [Compound 251, N-(8-fluoro-2-methylimidazo[1,2-a]-pyridin-6-yl)-2-methyl-4-(2-oxopiperazin-1-yl)-2H-indazole-7-carboxamide 2,2,2-trifluoroacetate] | > 10000 | > 10000 | > 10000 | > 10000
7 | Cc1cn2cc(NC(=O)c3ccc(N4C[C@@H](C)N[C@@H](C)C4)c4nn(C)nc34)cc(F)c2n1 [Compound 252, 7-((3S,5R)-3,5-dimethyl-piperazin-1-yl)-N-(8-fluoro-2-methyl-imidazo[1,2-a]pyridin-6-yl)-2-methyl-2H-benzo[d][1,2,3]triazole-4-carboxamide 2,2,2-trifluoroacetate] | 100 to 1000 | 100 to 1000 | 100 to 1000 | 100 to 1000
8 | Cc1cn2cc(NC(=O)c3ccc(N4CCNCC4=O)c4[nH]cnc34)cc(F)c2n1 [Compound 257, N-(8-fluoro-2-methyl-imidazo[1,2-a]-pyridin-6-yl)-7-(2-oxopiperazin-1-yl)-1H-benzimidazole-4-carboxamide] | > 10000 | > 10000 | > 10000 | > 10000
9 | Cc1cn2cc(NC(=O)c3ccc(N4C[C@@H](C)N[C@@H](C)C4)c4nnn(C)c34)cc(F)c2n1 [Compound 261, 7-[(3R,5S)-3,5-dimethylpiperazin-1-yl]-N-(8-fluoro-2-methyl-imidazo[1,2-a]pyridin-6-yl)-3-methyl-benzotriazole-4-carboxamide] | > 10000 | > 10000 | > 10000 | > 10000
10 | CO[C@H]1C[C@H](N[C@H]2CCN(c3ccc(C(=O)Nc4cc(F)c5nc(C)cn5c4)c4nn(C)cc34)C2)C1 [Compound 275, N-(8-fluoro-2-methylimidazo[1,2-a]pyridin-6-yl)-4-((S)-3-(((1r,3S)-3-methoxycyclobutyl)amino)pyrrolidin-1-yl)-2-methyl-2H-indazole-7-carboxamide] | 1000 to 10000 | 1000 to 10000 | 100 to 1000 | 100 to 1000
11 | CO[C@H]1C[C@@H](N[C@H]2CCN(c3ccc(C(=O)Nc4cc(F)c5nc(C)cn5c4)c4nn(C)cc34)C2)C1 [Compound 277, N-(8-fluoro-2-methylimidazo[1,2-a]pyridin-6-yl)-4-((S)-3-(((1s,3R)-3-methoxy-cyclobutyl)amino)pyrrolidin-1-yl)-2-methyl-2H-indazole-7-carboxamide] | < 100 | 1000 to 10000 | 100 to 1000 | 100 to 1000
12 | Cc1cn2cc(NS(=O)(=O)c3ccc(N4C[C@@H](C)N[C@@H](C)C4)c4cn(C)nc34)cc(F)c2n1 [Compound 279] | > 10000 | > 10000 | > 10000 | > 10000
13 | CCNC1CCN(c2ccc(C(=O)Nc3cc(F)c4nc(COC)cn4c3)c3nn(C)cc23)CC1 [Compound 284, 4-[4-(ethylamino)-1-piperidyl]-N-[8-fluoro-2-(methoxymethyl)imidazo[1,2-a]pyridin-6-yl]-2-methyl-indazole-7-carboxamide] | > 10000 | 1000 to 10000 | 1000 to 10000 | 1000 to 10000
14 | COCCN[C@@H]1CCN(c2cc(O)c(C(=O)Nc3cc(F)c4nc(C)cn4c3)c3nn(C)cc23)C1 [Compound 285, N-(8-fluoro-2-methyl-imidazo[1,2-a]pyridin-6-yl)-6-hydroxy-4-[(3R)-3-(2-methoxyethylamino)pyrrolidin-1-yl]-2-methyl-indazole-7-carboxamide] | > 10000 | > 10000 | < 100 | < 100
15 | Cc1cn2cc(NC(=O)c3c(O)cc(N4CC[C@@H](NC5CC5)C4)c4cn(C)nc34)cc(F)c2n1 [Compound 288, 4-[(3R)-3-(cyclopropylamino)-pyr-rolidin-1-yl]-N-(8-fluoro-2-methyl-imidazo[1,2-a]pyridin-6-yl)-6-hydroxy-2-methyl-indazole-7-carboxamide] | > 10000 | > 10000 | < 100 | < 100
16 | Cn1cc2cc(NC(=O)c3c(O)cc(N4CC[C@@H](NC5CC5)C4)c4cn(C)nc34)cc(F)c2n1 [Compound 291, 4-[(3R)-3-(cyclopropylamino)pyrrolidin-1-yl]-N-(7-fluoro-2-methyl-indazol-5-yl)-6-hydroxy-2-methyl-indazole-7-carboxamide] | 1000 to 10000 | 1000 to 10000 | < 100 | < 100
17 | CCN[C@@H]1CCN(c2cc(O)c(C(=O)Nc3cc(F)c4nn(C)cc4c3)c3nn(C)cc23)C1 [Compound 294, 4-[(3R)-3-(ethylamino)-pyrrolidin-1-yl]-N-(7-fluoro-2-methyl-indazol-5-yl)-6-hydroxy-2-methyl-indazole-7-carboxamide] | 1000 to 10000 | 100 to 1000 | < 100 | < 100
18 | Cc1cn2cc(NC(=O)c3ccc(N4CCC(NC5CC5)CC4)c4cn(C)nc34)nc2c(C)n1 [Compound 297, 4-[4-(cyclopropylamino)-1-piperidyl]-N-(6,8-dimethylimidazo[1,2-a]pyrazin-2-yl)-2-methyl-indazole-7-carboxamide] | > 10000 | > 10000 | 100 to 1000 | 100 to 1000
19 | COc1c(NC(=O)c2ncc(N3CCNCC3)c3cn[nH]c23)cn2cc(C)nc2c1F [Compound 606, N-(8-fluoro-7-methoxy-2-methyl-imidazo[1,2-a]pyridin-6-yl)-4-piperazin-1-yl-1H-pyrazolo[3,4-c]pyridine-7-carboxamide] | > 10000 | > 10000 | > 10000 | > 10000
20 | COc1c(NC(=O)c2c(F)cc(N3CCNCC3)c3cn[nH]c23)cn2cc(C)nc2c1F [Compound 607, 6-fluoro-N-(8-fluoro-7-methoxy-2-methyl-imidazo[1,2-a]pyridin-6-yl)-4-piperazin-1-yl-1H-indazole-7-carboxamide] | 1000 to 10000 | 100 to 1000 | < 100 | < 100
21 | Cc1cn2cc(NC(=O)c3ccc(N4C[C@@H](C)N[C@@H](C)C4)c4c3nnn4C)cc(F)c2n1 [Compound 635] | 1000 to 10000 | 1000 to 10000 | 100 to 1000 | 100 to 1000
